Laboratory results published in paper PMC13129453, “Targeting the US21 viroporin of human cytomegalovirus by calcium channel blockers as a new antiviral strategy” (Current Research in Microbial Sciences, 2026).
Where “and” joins values, the source holds several entries; their conditions need not be identical. Identical values can stand only once. Like-named read-outs stand apart in the source and are kept apart here.

Assays:
[1] = Cell cytotoxicity assay (MTT), HMVECs; type: cell-based; conditions: human; for CC50 at 5 days: HMVECs, HMVEC, MTT, five days of treatment
Procedure: (§1) The effect of test compounds on cell viability was determined in hT-HFFs, HMVECs and T-REx-U2OS-US21-HA cells seeded in p96-well (12,000 cells/well). After 24 h, cells were treated with compounds at concentrations starting from 300 μM and then serially diluted in culture medium, or with DMSO alone starting from 0.6% v/v as the vehicle control. For cell viability of drug combination studies, the control with DMSO was from 0.07%.

HCMV VR1814 [2] = assay: Focus-forming reduction assay (FFRA), HCMV VR1814; type: cell-based, Human cytomegalovirus
HCMV TRwt [3] = assay: Focus-forming reduction assay (FFRA), HCMV TRwt; type: cell-based, Human cytomegalovirus; conditions: for EC50 / EC90: Human betaherpesvirus 5, hT-HFF, FFRA, 96 h p.i.; for SI: hT-HFF, ratio between CC50 and EC50
Procedure: (§2) The antiviral activity of CCBs was evaluated against VR1814 and TRwt by means of the focus-forming reduction assay (FFRA) procedure. Briefly, hT-HFFs were seeded on 96-well plates (20,000 cells/well) and, after 24 h, treated with different concentrations of compounds (maximum concentration 20 μM, or 100 μM for felodipine) 1 h prior to and during viral infection (50 PFU/well). Control HCMV-infected cells were exposed to vehicle DMSO at 0.04%, or 0.2% for felodipine). After virus adsorption (2 h at 37 °C), virus inoculum was removed and infected cell cultures were incubated in medium containing the corresponding compounds plus 1.2% (w/v) methylcellulose (Merck) and 5% (v/v) FBS. At 96 h post infection (p.i.), cell monolayers were fixed and subjected to indirect immunoperoxidase staining (IPA) with the HCMV IEA mAb (diluted 1:150). Viral foci were microscopically counted, and the mean plaque counts for each drug concentration were expressed as a percentage of the mean plaque counts of control virus (DMSO). GraphPad Prism software was used to determine the concentration of compounds producing 50 and 90% reductions in viral titers (EC50 and EC90).

[4] = Cell cytotoxicity assay (MTT), hT-HFFs; type: cell-based; conditions: human; for CC50 at 5 days: hT-HFFs, hT-HFF, MTT, five days of treatment
Procedure: as §1

HCMV VR1814 [5] = assay: Focus-forming reduction assay (FFRA), HCMV VR1814; type: cell-based, Human cytomegalovirus; conditions: hT-HFF; for EC50 / EC90: Human betaherpesvirus 5, VR1814, FFRA, 96 h p.i.; for SI: VR1814, ratio between CC50 and EC50
Procedure: as §2

pUS21 = target: T1, pUS21 (Human cytomegalovirus, UniProt P09723); type: cell-based
T1 construct: expressed in transfected cells; host or cells: T-REx-U2OS-US21-HA (human osteosarcoma U2OS, stably transfected, tetracycline-inducible)
T1 sequence (P09723 whole entry): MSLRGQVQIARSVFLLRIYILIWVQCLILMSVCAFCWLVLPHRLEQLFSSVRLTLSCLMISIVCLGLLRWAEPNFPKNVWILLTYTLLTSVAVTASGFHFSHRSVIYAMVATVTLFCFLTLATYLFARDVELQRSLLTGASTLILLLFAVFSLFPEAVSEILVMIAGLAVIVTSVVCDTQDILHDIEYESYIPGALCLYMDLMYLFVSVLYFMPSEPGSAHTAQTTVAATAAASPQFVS
Procedure: Calcium measurement was determined applying the Ca^2+ add back protocol as previously described ([Luganini et al., 2023]). Briefly, non-induced (NI) or induced (I) T-REx-U2OS-US21-HA cell lines for 48 h with tetracycline, plated at a density of 5000 cells/cm^2 on glass coverslips, were loaded (45 min at 37 °C) with 2 μM Fura-2 AM (Invitrogen, Waltham, MA, USA) and excited at two alternating wavelengths: 340 and 380 nm. Fluorescence emission was captured using a Nikon Eclipse TE-2000S inverted microscope equipped with the MetaFluor Imaging System (Molecular Devices, San Jose, CA, USA). Ratiometric cytosolic Ca^2+ ([Ca^2+]c) quantification was expressed as the ratio (R) of fluorescence emitted at 510 nm for the two excitation wavelengths. Images were acquired every 3 s. Ca^2+ imaging analysis was conducted by peak amplitude quantification using Clampfit 11.1 (Axon pClamp, Molecular Devices). Responses with a ΔR340/380 > 0.05 were taken in account. To assess the ER Ca^2+ content in T-REx-U2OS-US21-HA NI or I cells, depletion of the ER Ca^2+ pool was triggered using IP3mix in the absence of extracellular Ca^2+ (0 Ca^2+). IP3mix consisted of thapsigargin (2 μM), histamine (100 μM), and ATP (100 μM). The experiments were performed in acute treatment in presence of CCBs or DMSO, as control at 0.01%.

HCMV TRUS21stop = assay: microbe, parasite or virus in culture; type: cell-based, Human cytomegalovirus
HCMV TRwt [6] = assay: Focus-forming reduction assay (FFRA), HCMV TRwt; type: cell-based, Human cytomegalovirus
[7] = HMVEC, VR1814, ratio between CC50 and EC50
[8] = Human betaherpesvirus 5, HMVEC, VR1814, FFRA, 96 h p.i., read-out: EC50
[9] = Human betaherpesvirus 5, HMVEC, VR1814, FFRA, 96 h p.i., read-out: EC90
[10] = Human betaherpesvirus 5, hT-HFF, TRUS21stop, FFRA, 96 h p.i., read-out: EC50
[11] = Human betaherpesvirus 5, hT-HFF, TRUS21stop, FFRA, 96 h p.i., read-out: EC90
[12] = hT-HFF, TRUS21stop, ratio between CC50 and EC50
[13] = HMVEC, TRwt, ratio between CC50 and EC50
[14] = Human betaherpesvirus 5, HMVEC, TRwt, FFRA, 96 h p.i., read-out: EC50
[15] = Human betaherpesvirus 5, HMVEC, TRwt, FFRA, 96 h p.i., read-out: EC90
[16] = Human betaherpesvirus 5, HMVEC, 96 h

Row | SMILES | CC50 at 5 days [1] [µM] | SI (HCMV VR1814 [2]; [7]) | EC50 (HCMV VR1814 [2]; [8]) [µM] | EC90 (HCMV VR1814 [2]; [9]) [µM] | EC50 (HCMV TRwt [3]) [µM] | EC90 (HCMV TRwt [3]) [µM] | SI (HCMV TRwt [3]) | CC50 at 5 days [4] [µM] | EC50 (HCMV VR1814 [5]) [µM] | EC90 (HCMV VR1814 [5]) [µM] | SI (HCMV VR1814 [5]) | Ca2+-conducting activity of pUS21 (Ca2+ release from the ER after IP3mix) (pUS21) | EC50 (HCMV TRUS21stop; [10]) [µM] | EC90 (HCMV TRUS21stop; [11]) [µM] | SI (HCMV TRUS21stop; [12]) | SI (HCMV TRwt [6]; [13]) | EC50 (HCMV TRwt [6]; [14]) [µM] | EC90 (HCMV TRwt [6]; [15]) [µM] | further results
1 | CC1=C(C(=O)OC(C)C)C(c2cccc([N+](=O)[O-])c2)C(C(=O)OC2CN(C(c3ccccc3)c3ccccc3)C2)=C(N)N1 (stereo not shown) [Azelnidipine, azelnidipine] | 341 ± 20.1 | 110.37 | 3.09 ± 0.46 | 19 ± 0.27 | 1.53 ± 0.32 | 12.1 ± 0.27 | 125.50 | 192 ± 20.5 | 2.96 ± 0.53 | 14.7 ± 0.39 | 64.87 | can hamper the Ca^2+-mobilizing activity of pUS21 | 5.46 ± 0.17 | 19.36 ± 0.06 | 35.16 | 160.87 | 2.12 ± 0.14 | 9.53 ± 0.76 | –
2 | CC1=C(C(=O)OCCN(Cc2ccccc2)c2ccccc2)C(c2cccc([N+](=O)[O-])c2)C(P2(=O)OCC(C)(C)CO2)=C(C)N1 (stereo not shown) [Efonidipine, efonidipine] | 295 ± 11 | 82.28 | 3.59 ± 0.67 | 19.5 ± 0.72 | 3.18 ± 0.07 | 14.2 ± 1.67 | 106.82 | 340 ± 20.1 | 3.04 ± 0.23 | 13.6 ± 2.46 | 111.74 | can hamper the Ca^2+-mobilizing activity of pUS21 | 7.11 ± 0.05 | > 20 | 47.77 | 83.21 | 3.55 ± 0.13 | 6.58 ± 0.91 | –
3 | COC(=O)C1=C(C)NC(C)=C(C(=O)OC(C)(C)CN(C)CCC(c2ccccc2)c2ccccc2)C1c1cccc([N+](=O)[O-])c1 (stereo not shown) [Lercanidipine, lercanidipine] | 286 ± 19.1 | 105.86 | 2.7 ± 0.54 | 14.5 ± 0.19 | 3.08 ± 0.28 | 12.7 ± 1.6 | 41.08 | 127 ± 18.8 | 3.12 ± 0.43 | 12.7 ± 1.66 | 40.55 | can hamper the Ca^2+-mobilizing activity of pUS21 | 7.6 ± 0.11 | 19.9 ± 0.5 | 16.65 | 86.09 | 3.32 ± 0.38 | 5.9 ± 0.11 | –
4 | CC(C)Nc1nc2cc(Cl)c(Cl)cc2n1[C@H]1O[C@@H](CO)[C@H](O)[C@@H]1O [MBV, Maribavir] | – | – | – | – | – | – | – | – | – | – | – | – | – | – | – | – | 4.74 | – | –
5 | COC(=O)C1=C(C)NC(C)=C(C(=O)OCCCN2CCC(c3ccccc3)(c3ccccc3)CC2)[C@H]1c1cccc([N+](=O)[O-])c1 [Niguldipine, niguldipine] | – | – | – | – | – | – | – | – | – | – | – | can hamper the Ca^2+-mobilizing activity of pUS21 | – | – | – | – | – | – | CC50 [1]: 205 ± 23.3 µM; SI (HCMV VR1814 [2]): 67.93 and 76.31; EC50 (HCMV VR1814 [2]; Human betaherpesvirus 5, 96 h): 3.16 ± 0.64 µM; EC90 (HCMV VR1814 [2]; Human betaherpesvirus 5, 96 h): 15 ± 0.48 µM; EC50 (HCMV VR1814 [2]; [16]): 3.02 ± 0.16 µM; EC90 (HCMV VR1814 [2]; [16]): 12.7 ± 0.16 µM; CC50 [4]: 241 ± 23.9 µM; SI (HCMV TRUS21stop): 68.70; EC50 (HCMV TRUS21stop; Human betaherpesvirus 5, 96 h): 3.51 ± 0.22 µM; EC90 (HCMV TRUS21stop; Human betaherpesvirus 5, 96 h): 13 ± 0.63 µM; SI (HCMV TRwt [6]): 191.39 and 178.40; EC50 (HCMV TRwt [6]; Human betaherpesvirus 5, 96 h): 1.26 ± 0.31 µM; EC90 (HCMV TRwt [6]; Human betaherpesvirus 5, 96 h): 7.33 ± 2.54 µM; EC50 (HCMV TRwt [6]; [16]): 1.15 ± 0.29 µM; EC90 (HCMV TRwt [6]; [16]): 7.24 ± 0.59 µM
6 | CCOC(=O)C1=C(C)NC(C)=C(C(=O)OC)C1c1cccc(Cl)c1Cl (stereo not shown) [felodipine] | – | – | – | – | 19.4 | – | – | – | – | – | – | – | 19.4 | – | – | – | – | – | –
